# No end group written: not given here.
# Legend:
# [1] = tested on: ASF1BN; assay: qB2H v4 binder selection, long-term turbidostat (Chi.Bio), kanamycin 209 μg/ml, NGS enrichment/frequency; assay type: cell-based; settings: kanamycin 209 μg/ml (120% MIC50), TF/T0 frequency ratio
# Description: (§1) Design and selection of binders
# (§2) An AI pipeline integrating RFdiffusion, ProteinMPNN, and AlphaFold2 (detailed in Supplementary Methods) was implemented to design N-terminal extensions of ip4_mutG, a weak ASF1 binder (Kd ~10 μM). Briefly, N-terminal extensions of 11 to 16 amino acids were fused to linkers (GSEAK, GSEK, or GSK) and appended to the ip4_mutG coding sequence. Rational designs and controls (flexible N-terminal extensions) were incorporated into the library, ordered as oligonucleotide pools (oPools, IDT), and cloned into the v4 series plasmid for transformation into SB39 cells. Library selection was performed in 2 experimental setups: (a) short batch selection and (b) prolonged continuous selection in a turbidostat (Chi.Bio [61]).
# (§3) In the batch selection, induced cultures diluted to OD600 = 0.05 were exposed to kanamycin concentrations ranging from 0 to 348 μg/ml. […] Cultures were maintained at OD600 0.4 for 21 or 29 h, followed by an additional 3-h growth period after sample collection, totaling 24 and 32 h.
# (§4) Plasmids extracted from samples taken before (T0) and after selection (TF) were sequenced by NGS (Illumina), and reads corresponding to expected sequences were quantified to assess relative frequencies and enrichment.
# Long selection runs (continuous cultures under stable cell density—turbidostat)
# Culture conditions before kanamycin-based selection were identical to those in “short selection runs in batches” including T0 sample preparation. However, the turbidostat function of Chi.Bio system^11,12 was used to implement a continuous culture over extended selection periods. […] Samples (10 mL) were recovered at 21 and 29 h after selection initiation and cultured for an additional 3 hours (final OD ~ 2.5) totalizing, respectively, 24 (TF_24h) or 32 hours (TF_32h) selection.
# (§5) NGS sample preparation and analysis
# (§6) NGS samples were prepared by PCR using primer OR2895 with one of primers from OR2890– OR2894: 98 °C for 1 min; 26 cycles of (98 °C for 15 s.; 65 °C for 15 s.; 72 °C for 1 min) and 72 °C for 3 min.
# (§7) FASTQ-formatted assembled paired-end reads corresponding to the expected sequences were counted and their frequencies calculated. Enrichment of each variant was obtained by the TF/T0 frequency ratio.
# [2] = molecular target: T1, SMT3 (Saccharomyces cerevisiae, UniProt Q12306); assay: qB2H v1 fluorescence, SMT3 (SUMO) vs SUMO-interacting motifs; assay type: cell-based, Escherichia coli; settings: BL21(DE3), qB2H v1, cI-SMT3 2-97, IPTG(20µM)
# T1 construct: SMT3; UNIPROT: Q12306; 2-97; Saccharomyces cerevisiae; expressed in transfected cells; host or cells: E. coli BL21(DE3) transformed with VN594 plus a pBRα rpoA-fusion plasmid
# T1 sequence (Q12306 2-97): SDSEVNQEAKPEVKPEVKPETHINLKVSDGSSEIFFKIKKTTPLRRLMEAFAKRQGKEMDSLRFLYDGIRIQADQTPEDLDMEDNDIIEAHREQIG
# Description: Precultures of untransformed (for intrinsic fluorescence evaluation) and transformed SB39 cells were diluted (3 μl into 300 μl of fresh medium) in 2-ml microtubes and grown in ThermoMixer C (Eppendorf; 37 °C at 900 rpm) for 2 h. Cultures with an OD600 of approximately 0.5 were then mixed with 100 μl of the same medium containing 4× inducer concentration. […] The induced cultures were grown overnight at 18 °C, diluted (1 μl) in freshly filtered (0.22 μm) phosphate-buffered saline buffer (1 ml per OD unit), and analyzed using guava easyCyte HT (488-nm blue laser). The gating for event analysis was set to minimize background noise (fewer than 100 gated events per 10 μl of sterile phosphate-buffered saline). Ten thousand events were collected per culture, and the MFI was recorded. […] Their MFI were used to normalize those of other conditions (x) using the following equation [Eq. (1)]: Normalized MFIx=MFIx−MFIlow/MFIhigh−MFIlow × 100 (1)
# MFI(x) represents the MFI of a given condition or culture. […] Each experiment was conducted in 3 independent assays performed on different days. Figures were generated using Python notebooks in conjunction with Matplotlib.
# Interactions involving distinct protein domains and folding variants were assessed using qB2H systems v1, v2, and v3. […] The x-axis labels indicate the qB2H version and the interacting partners, formatted as follows: (qB2H version) Partner_A–Partner_B (inducers). Anhydrotetracycline (aTc) concentrations are reported in ng/mL; IPTG concentrations are given in µM. All experimental conditions, acronyms, and constructs are defined in the Methods section.
# [3] = tested on: ASF1BN; assay: qB2H v4 binder selection, short-term batch, kanamycin, NGS enrichment/frequency; assay type: cell-based, bacterial; settings: 4 to 5 h, SB39 v4, TF/T0 frequency ratio
# Description: as §1, §2, §3, §4
# Short selection runs (batches)
# Glycerol stocks of mixed libraries were inoculated at approximately 18:00 in fresh media and grown overnight at 30 °C, to slow growth kinetics and reduce saturation-related stress (by decreasing the time spent in stationary phase). The grown cultures were diluted to OD600 = 0.05 in 150 mL of LB supplemented with 17 µg/mL chloramphenicol, 200 µM IPTG, 200 ng/mL aTc, and incubated (200 rpm, 37 °C) for 2 h (OD600 ~ 0.5). […] Assuming that sufficiently strong selection pressure can impact population growth over a short term (few hours), only cultures with OD at least 0.5 absorbance units lower than the OD of the culture without kanamycin after 4.5–5 h were retained for NGS analysis (TF-[ X µg/mL kan] samples).
# as §5, §6, §7
# [4] = tested on: TNFa; assay: qB2H v3 fluorescence, TNFa vs VHH/ScFv; assay type: cell-based, Homo sapiens; settings: SB39, v3, cI-TNFa 77-233, aTc(200ng/mL) + IPTG(1000µM)
# Description: (§8) Precultures of untransformed (for intrinsic fluorescence evaluation) and transformed SB39 cells were diluted (3 μl into 300 μl of fresh medium) in 2-ml microtubes and grown in ThermoMixer C (Eppendorf; 37 °C at 900 rpm) for 2 h. Cultures with an OD600 of approximately 0.5 were then mixed with 100 μl of the same medium containing 4× inducer concentration. Final inducer concentrations, chosen on the basis of maximal signal output, were 20 μM IPTG for v1 or v2 and 200 μM IPTG plus […] for v3 series. The induced cultures were grown overnight at 18 °C, diluted (1 μl) in freshly filtered (0.22 μm) phosphate-buffered saline buffer (1 ml per OD unit), and analyzed using guava easyCyte HT (488-nm blue laser). The gating for event analysis was set to minimize background noise (fewer than 100 gated events per 10 μl of sterile phosphate-buffered saline). Ten thousand events were collected per culture, and the MFI was recorded. […]
# (§9) MFI(x) represents the MFI of a given condition or culture. MFI(low) corresponds to the fluorescence produced by SB39 cells cotransformed with VN519 and VN550, indicating no detectable interaction (Kd > 100,000 nM). […]
# Interactions involving distinct protein domains and folding variants were assessed using qB2H systems v1, v2, and v3. […]
# [5] = tested on: ASF1BN; assay: qB2H fluorescent reporter (eGFP MFI, flow cytometry or colonies), ASF1BN, v1 to v3; assay type: cell-based, human; settings: relative to ip3_mut3A and ip1
# Description: qB2H experiments using a fluorescent reporter
# as §8, §9
# [6] = ChiBio_T24_Kan209, turbidostat 24 h
# [7] = ChiBio_T32_Kan209, turbidostat 32 h
# [8] = Batch_Kan261, kanamycin 261 μg/ml (150% MIC50 of ASF1–ip3)
# [9] = Batch_Kan348, kanamycin 348 μg/ml (200% MIC50 of ASF1–ip3)
substance,measurement,setting,value
"AAEEAARFAALLAALP-GSK-ip4_mutG [T32_Kan[209]_top2, AI design n°218 with GSK linker]",enrichment,[1]; [6],7.72E+01
same,enrichment,[1]; [7],8.39E+01
"CDC48 72-91: CDC48 P25694 region 72-91, SUMO-interacting motif peptide (KKRKDTVLIVLIDDELEDGA; UniProt P25694 72-91, looked up, fragment)",Norm. MFI,[2],46.16%
"CDC48 431-450: CDC48 P25694 region 431-450, SUMO-interacting motif peptide (QQIREKMDLIDLDEDEIDAE; UniProt P25694 431-450, looked up, fragment)",Norm. MFI,[2],9.91%
KPEAAASAAAEQAAFAALLAALPGSKWARLARRTAGAGGVTLNGAG [AI design n°217 with GSK linker],enrichment,[3]; [8],3.15E+00
KPEAAASAAAEQAHFAALLAKLPGSKWARLARRTAGAGGVTLNGAG [AI design n°225 with GSK linker],enrichment,[3]; [9],4.18E+00
KPEAAASAAEEQAAFDALLAALPGSKWARLARRTAGAGGVTLNGAG [AI design n°261 with GSK linker; third of turbidostat T32_Kan[209]],enrichment,[1]; [6],6.25E+00
same,enrichment,[1]; [7],1.11E+01
KPEAAASAEAEAARFAALLAALPGSKWARLARRTAGAGGVTLNGAG [AI design n°220 with GSK linker],enrichment,[1]; [6],4.84E-02
same,enrichment,[1]; [7],5.25E-02
KPEAAASAEAERWAQALAALPGSKWARLARRTAGAGGVTLNGAG [AI design n°32 with GSK linker],enrichment,[3]; [8],4.25E+00
KPEAAASAEEEEAAFAALLAALPGSKWARLARRTAGAGGVTLNGAG [AI design n°233 with GSK linker],enrichment,[1]; [6],1.42E+00
same,enrichment,[1]; [7],2.04E+00
KPEAAASAEEEQARFAALLAALPGSKWARLARRTAGAGGVTLNGAG [AI design n°250 with GSK linker],enrichment,[3]; [9],4.27E+00
KPEAAASDAAARFAAALAALPGSKWARLARRTAGAGGVTLNGAG [AI design n°37 with GSK linker],enrichment,[3]; [8],4.90E+00
KPEAAASMSSHQLWKQWGGGSEKWARLARRTAGAGGVTLNGAG [Rational design n°84 with GSEK linker],enrichment,[3]; [8],2.46E+00
KPEAAASSAAERFAAALAALPGSKWARLARRTAGAGGVTLNGAG [AI design n°47 with GSK linker; third of batch Kan[348]],enrichment,[3]; [9],4.66E+00
ScFv (D2E7): Adalimumab ScFV; WIPO: WO2011084714A2,Norm. MFI,[4],8.76%
"Srs2_SIM: SUMO-interacting motif, P12954 1164-1174, Saccharomyces cerevisiae (KLNNGEIIVID; UniProt P12954 1164-1174, looked up, fragment)",Norm. MFI,[2],62.95%
WARLARRTAGAGGVTLNGAG [ip4_mutG],qB2H signal,[5],between ip3_mut3A and ip1
